Results as given in publication PMC6753678, “Fueling Open Innovation for Malaria Transmission-Blocking Drugs: Hundreds of Molecules Targeting Early Parasite Mosquito Stages” (Frontiers in Microbiology, 2019).
Like-named read-outs stand apart in the source and are kept apart here.

Tests used:
[1] = test system: P. falciparum female gametocytes; parameters: method as in Miguel-Blanco et al 2017; conditions: TCAMS screen comparison; ref Miguel-Blanco et al 2017; read-out: Pf FGAA IC50; cited from earlier work
[2] = test system: P. falciparum late stage (stages IV-V) gametocytes; assay: P. falciparum late stage gametocyte ATP depletion assay (Pf GC-ATP); conditions: 1: YES; 0: NO
HepG2 cells [3] = assay: HepG2 cytotoxicity assay; conditions: for IC50: read-out: HepG2 cytotoxicity assay IC50, dose response confirmation
Method in brief: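 HepG2 cells, 2,500 per well in MEM with 10% FBS and 1% NEAA, exposed to compounds for 48 h at 37°C, 5% CO2. Viability read by fluorescence; percent inhibition relative to 50 μM doxorubicin and DMSO controls.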

[4] = test system: P. falciparum late stage (stages IV-V) gametocytes; parameters: method as in Almela et al 2016; conditions: ref Almela et al 2016, read-out: Pf GCT ATP IC50, cited from earlier work
[5] = test system: P. falciparum female gametocytes; assay: P. falciparum female gametogenesis assay (Pf FGAA); conditions: 1: YES; 0: NO
HepG2 cells [6] = conditions: cited from earlier work
[7] = test system: P. berghei ookinete development; conditions: for % inhibition, Replicate A / % inhibition, Replicate B: primary screen at 1 μM
[8] = test system: 3D7-strain P. falciparum asexual parasites; assay: P. falciparum asexual growth inhibition assay (Pf GIA); assay type: cell-based, Plasmodium falciparum; conditions: dose response confirmation; read-out: Pf asexual growth inhibition assays IC50
Method in brief: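 0.25% parasitemia, 2% Hct, RPMI/HEPES/hypoxanthine/5% Albumax; compound dose response, 72 h, 37°C, 5% CO2, 5% O2, 90% N2. Freeze-thaw, then LDH assay, A650. % inhibition vs chloroquine (50 μM)/DMSO, mean of 3 independent runs.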

[9] = HepG2 cytotoxicity unified across the three screens
[10] = value reported with the Pf GCT ATP screen, ref Almela et al 2016
[11] = value reported with the Pf FGAA screen, ref Miguel-Blanco et al 2017
[12] = HepG2 values of the three screens unified
[13] = read-out: Pb ODA IC50, this manuscript
[14] = read-out: Pb Ookinete development assay IC50, dose response confirmation

SMILES | IC50 [1] [nM] | Is compound selective in assay? Pf GC-ATP active? [2] | Unified cytotox (HepG2 cells [3]; [9]) [µM] | IC50 ([4]; TCAMS screen comparison) [nM] | Is compound selective in assay? Pf FGAA active? [5] | HepG2 cytoxicity (HepG2 cells [6]; [10]) [µM] | HepG2 cytoxicity (HepG2 cells [6]; [11]) [µM] | Unified cytotox (HepG2 cells [3]; [12]) [µM] | IC50 (HepG2 cells [3]) [nM] | Is compound selective in assay? Pb ODA active? ([7]; 1: YES, 0: NO) | % inhibition, Replicate A [7] [%] | % inhibition, Replicate B [7] [%] | IC50 [7, 13] [nM] | IC50 [7, 14] [nM] | IC50 [4] [nM] | IC50 [8] [nM] | HepG2 cytoxicity (Pf GCT ATP screen) (HepG2 cells [6]; ref Almela et al 2016) [µM] | HepG2 cytoxicity (Pb ODA, this manuscript) (HepG2 cells [3]) [µM] | Is compound selective in assay? Pb ODA active? [7]
CNC(=S)NN=C(C)c1ccccn1 [TCMDC-123475] | 14 | 1 (1: YES) | 25.00 | 1170 | 1 (1: YES) | >25 |  |  |  |  |  |  |  |  |  |  |  |  | 
COc1ccc(C[C@H](N)C(=O)N[C@H]2[C@@H](O)[C@H](n3cnc4c(N(C)C)ncnc43)O[C@@H]2CO)cc1 [TCMDC-123493] | 290 | 0 (0: NO) | 2.37 | 560 | 0 (0: NO) | 2.95 | 1.80 |  |  |  |  |  |  |  |  |  |  |  | 
CCN(CC)CCCn1c(N)c(-c2nc3ccccc3[nH]2)c2nc(C#N)c(C#N)nc21 [TCMDC-123680] | 740 | 1 (1: YES) | 6.48 | 140 | 0 (0: NO) | 8.7 | 4.27 |  |  |  |  |  |  |  |  |  |  |  | 
COc1cc2nc(N3CCN(c4nc(N)c5cc(OC)c(OC)cc5n4)CC3)nc(N)c2cc1OC [TCMDC-123865] | 580 | 1 (1: YES) | 52.49 | 260 | 1 (1: YES) | >25 | 52.49 |  |  |  |  |  |  |  |  |  |  |  | 
[O-][s+]1c(Cl)c(-c2ccc(Cl)cc2)c2ccc(Cl)cc21 (stereo not shown) [TCMDC-124011] | 36.6 | 1 (1: YES) | 12.08 | 20 | 1 (1: YES) | 12.8 | 11.35 |  |  |  |  |  |  |  |  |  |  |  | 
C=CCN(C(=O)c1ccc(Cl)c([N+](=O)[O-])c1)c1nc(-c2ccccc2)cs1 [TCMDC-124436] | 130 | 1 (1: YES) | 100.00 | 110 | 1 (1: YES) | >25 | >100 |  |  |  |  |  |  |  |  |  |  |  | 
Cc1[nH]c2ccccc2c1C(=O)C(C)Sc1n[nH]c(-c2ccccc2Br)n1 (stereo not shown) [TCMDC-125114] |  | 1 (1: YES) |  |  |  |  |  | 74.66 | 100000 | 1 (1: YES) | 114.44 | 73.49 | 170 | 174 | 670 | 57 | 49.31 |  | 
COc1cccc(NC(=O)[C@H](C(C)C)n2c(=O)[nH]c3ccccc3c2=O)c1 [TCMDC-125133] |  | 1 (1: YES) |  |  |  |  |  | 100.00 | 100000 | 1 (1: YES) | 62.00 | 73.38 |  | 1530 | 540 | 170 | >50 |  | 
CCOc1ccc(-c2nonc2NC(=O)c2cccc(Cl)c2)cc1OCC [TCMDC-125200] |  | 1 (1: YES) |  |  |  |  |  | 19.50 | 19500 | 0 (0: NO) | 62.08 | 54.18 | 6230 | 6230 | 840 | 156 | >25 | 19.50 | 
COc1ccc(C[C@H]2NC[C@H](O)[C@H]2OC(C)=O)cc1 [TCMDC-125504] |  | 0 (0: NO) |  |  |  |  |  | 1.24 | 2290 |  | 102.72 | 96.40 | 210 | 215 | 170 | 54 | 0.19 | 2.29 | 0 (key: 1: YES; 0: NO)
COCCn1c(-c2cccc(Cl)c2)nn(-c2ccc([N+](=O)[O-])cc2C#N)c1=S [TCMDC-134719] |  | 1 (1: YES) |  |  |  |  |  | 100.00 | 100000 | 1 (1: YES) | 64.09 | 78.69 | 1840 | 1840 | 2780 | 403 | >25 |  | 
CCOCn1c(-c2ccccc2)cc2c3c(N)nc(N)nc3ccc21 [TCMDC-137979] |  | 0 (0: NO) |  |  |  |  |  | 5.22 | 4790 | 0 (0: NO) | 30.79 | 81.58 | 7500 | 7500 | 1300 | 180 | 5.65 | 4.79 | 
C=CC(C)C1OC(=O)c2cc(OC)cc(OC)c21 (stereo not shown) [TCMDC-138676] |  | 0 (0: NO) |  |  |  |  |  | 1.01 | 1220 | 0 (0: NO) | 44.05 | 73.82 | 490 | 489 | 400 | 259 | 0.8 | 1.22 | 
Cc1cc(F)ccc1-c1nc(NCC(O)CNCCc2ccccc2)nc2c1ccc(=O)n2-c1c(F)cccc1F.O=C(O)C(F)(F)F (stereo not shown) [TCMDC-141784] |  | 1 (1: YES) |  |  |  |  |  | 11.63 | 14800 | 0 (0: NO) | 54.07 | 33.72 | 3850 | 3850 | 230 | 451 | 8.47 | 14.79 | 
O=c1c(Br)ccccc1Br [TCMDC-142246] |  | 1 (1: YES) |  |  |  |  |  | 13.70 | 14800 | 1 (1: YES) | 52.58 | 94.32 | 930 | 933 | 210 | 2070 | 12.6 | 14.79 | 
